Each structure is given as a SMILES string. Values joined by “and” are separate entries in the source; they are usually repeats but may differ in a detail not shown here. Identical values can stand only once. Like-named read-outs stand apart in the source and are kept apart here.

A word on the EC50: it is the concentration that produces a half-maximal response. The term IC50 denotes the concentration at which inhibition is half-maximal. Read a low IC50 as inhibition by little substance.

One series has as its system MRC5 cells. The series is described as follows: Metabolic activity assay (MTS assay), MRC5. It is filed as cell-based, human. As to the method: Example NMT inhibitors of the present invention were tested for activity in an in vitro metabolic activity assay using the human cell line MRC5. Comparative Examples 1, 2, 3, 4, 5 and 6 were also tested in the same metabolic activity assay. Compounds having activity in inhibiting metabolic activity in the assay are expected to be useful as agents for preventing and/or treating cancer, by virtue of being inhibitors of human NMT1 and/or NMT2.
MRC5 cells (obtained from Dr David Mann's group, Imperial College; cell type: fibroblasts cells which derive from normal lung tissue) were grown in DMEM media (supplemented with 10% FBS) and were seeded in a 96-well plate, 24 h prior to treatment. Cell suspensions were prepared by adjusting the cell density to the appropriate concentration (as stated in the Table 1 below) and 50 μL of the cell suspension was transferred to wells B-G in columns 2-11 of a 96-well plate.
100 μL of growth media (DMEM media) containing 0.2% DMSO was added to wells B-G in columns 2 and 11 as positive controls, and 100 μl of growth media containing Puromycin (3 μg/mL; final concentration in the plate 2 μg/mL) was added to wells B-G in column 3 as a negative control. Seven concentrations of NMT inhibitor stock solution were prepared for each Example (Example 1 and 2) and each Comparative Example (Comparative Examples 1, 2, 3, 4, 5 and 6) tested (same final percentage of DMSO, dilution factor=3 starting from 15 μM or 150 μM). 100 μL of inhibitor stock solution was added to wells B-G in columns 4-10 of a 96-well plate (final concentration of Example compound or Comparative Example compound in the plate starting from 10 μM or 100 μM; total volume in each well was 150 μL). The plate was incubated at 37° C. with 5% CO2 level.
After 72 h, 20 μL MTS reagent (Promega, prepared according to the supplier protocol) was added to each well of the 96-well plate. The plate was incubated at 37° C. for 2 h and the absorbance per well was measured at 490 nm with an EnVision plate reader. The average absorbance value of the negative control (Puromycin-treated cells) was subtracted from each value and the metabolic activity was calculated as a percentage relative to the positive control (DMSO-treated cells). EC50 values were calculated using GraphPad.
Background: Tetrazolium dyes change colour on reduction, which living cells bring about.

The target of another series is T1, human NMT1 (HsNMT1) (Homo sapiens, UniProt P30419).
T1 sequence (P30419 1-496): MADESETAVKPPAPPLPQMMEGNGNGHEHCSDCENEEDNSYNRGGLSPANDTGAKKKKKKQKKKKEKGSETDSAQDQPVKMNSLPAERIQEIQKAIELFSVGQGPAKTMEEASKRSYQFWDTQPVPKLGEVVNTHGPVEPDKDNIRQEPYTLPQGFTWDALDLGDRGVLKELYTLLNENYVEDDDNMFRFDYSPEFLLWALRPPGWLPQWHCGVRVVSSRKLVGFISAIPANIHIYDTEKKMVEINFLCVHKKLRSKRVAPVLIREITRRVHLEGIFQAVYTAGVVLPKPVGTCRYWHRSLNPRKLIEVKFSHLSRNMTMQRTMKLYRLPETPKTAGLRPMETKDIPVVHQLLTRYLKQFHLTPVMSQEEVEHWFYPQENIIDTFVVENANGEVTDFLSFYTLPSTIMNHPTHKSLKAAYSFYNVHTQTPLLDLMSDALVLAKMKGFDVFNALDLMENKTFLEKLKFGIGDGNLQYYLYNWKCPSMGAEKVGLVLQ
The series is described as follows: HsNMT1 IC50, fluorescence-based assay detecting CoA with CPM. It is filed as biochemical. As to the method: The IC50 values for human NMT1 (HsNMT1) of four Example compounds of the invention described above (Examples 1-4) and six comparative examples (Comparative Examples 1, 2, 3, 4, 5 and 6) were measured using a sensitive fluorescence-based assay based on detection of CoA by 7-diethylamino-3-(4-maleimido-phenyl)-4-methylcoumarin, as described in Goncalves, V., et al., Analytical Biochemistry, 2012, 421, 342-344 and Goncalves, V., et al., J. Med. Chem, 2012, 55, 3578.

The next series has as its system BL-41 cells. As to the kind of experiment: CellTiter-Blue assay, BL-41. It is filed as cell-based, human. Here is the method:
(§1) Example NMT inhibitors of the present invention were tested for activity in in vitro CellTiter-Blue® assays using the human cell line MDA MB 231, LY 12318, or BL-41. Comparative Examples 1 and 2 were also tested in the same assays. Compounds having activity in inhibiting metabolic activity in the assay are expected to be useful as agents for preventing and/or treating cancer, by virtue of being inhibitors of human NMT1 and/or NMT2.
(§2) MDA MB 231 cells (obtained from Professor Eric Aboagye, Hammersmith Hospital; cell type: triple negative breast cancer) were grown in low glucose DMEM in 5% CO2 media (supplemented with 10% FBS); LY 12318 cells (obtained from Dr Martin Janz, Max Delbrueck Center; cell type: B cell lymphoma patient derived xenograft) were grown in DMEM media (supplemented with 10% FBS); and BL-41 cells (obtained from Cell Services at the Crick Institute; cell type: Burkitt's Lymphoma) were grown in RPMI-1640 media in 5% CO2 (supplemented with 10% FBS). The MDA MB 231 cells, LY 12318 cells or BL-41 cells were seeded in 96-well plates, 24 h prior to treatment. Cell suspensions were prepared by adjusting the cell density to the appropriate concentration (as stated in the Table 2 below) and 50 μL of the cell suspension was transferred to wells B-G in columns 2-11 of a 96-well plate.
(§3) Twenty-four hours later, 50 μl of growth media (low glucose DMEM in 5% CO2 media supplemented with 10% FBS for MDA MB 231 cells; DMEM media in 5% CO2 supplemented with 10% FBS for LY 12318 cells; or RPMI-1640 media supplemented with 10% FBS for BL-41 cells) containing 0.0004% DMSO (positive control), a mix of Puromycin and Staurosporine (negative controls, final concentration 2 μg/mL and 1 μM respectively) or different concentrations of each Example (Example 1 and 2) or each Comparative Example (Comparative Example 1 and 2) (dilution factor=3, starting at […], final concentration in the plate starting from 10 μM) were prepared and added to a well of the 96-well plate. The plate was incubated at 37° C. with 5% CO2 level.
(§4) 72 hours later, 20 μl/well CellTiter-Blue® (G8081, Promega) were added to the plates according to the manufacturer's protocol, the plate was incubated at 37° C. for 4 h for MDA MB 231 cells and BL-41 cells, or 3 h for LY 12318 cells, followed by measuring the absorbance per well at 570 nm using an EnVision plate reader. The negative control values were subtracted from every value. The metabolic activity was calculated as a percentage relative to the positive control. The EC50 values were calculated using GraphPad Prism.
Background: Alamar Blue is a resazurin reagent that responds to reducing activity.

In another series the test system is MDA MB 231 cells. As to the kind of experiment: CellTiter-Blue assay, MDA MB 231. It is filed as cell-based, human. As to the method:
as §1, §2, §3, §4

In another series the test system is LY 12318 cells. As to the kind of experiment: CellTiter-Blue assay, LY 12318. It is filed as cell-based, human. As to conditions: 72 h, read-out: LY12318 EC50. As to the method:
as §1, §2, §3, §4

The compound `CNCCc1cnc2ccc(-c3ccc(F)cc3OCCc3c(C)nn(C)c3C)cn12` [Comparative Example 3, [2-(6-{4-fluoro-2-[2-(1,3,5-trimethyl-1H-pyrazol-4-yl)ethoxy]phenyl}imidazo[1,2-a]pyridin-3-yl)ethyl](methyl)amine] gave an EC50 with MRC5 cells (Homo sapiens, MRC5, 72 h) of 5.4 µM. On human NMT1 (HsNMT1), this compound came in with a half-inhibitory concentration (IC50) of 10.5 nM.
Take `Cc1c(CCOc2cc(Cl)ccc2-c2ccc3ncc(CCN)n3c2)c(C(=O)N(C)C)nn1C` [Example Compound 1, 4-(2-{2-[3-(2-aminoethyl)imidazo[1,2-a]pyridin-6-yl]-5-chlorophenoxy}ethyl)-N,N,1,5-tetramethyl-1H-pyrazole-3-carboxamide]: the EC50 stood at 0.013 µM with MRC5 cells (72 h), 14 nM with BL-41 cells (72 h), 20 nM in the series on MDA MB 231 cells (72 h) and 27 nM with LY 12318 cells.
As to `CNC(=O)c1nn(C)c(C)c1CCOc1cc(F)ccc1-c1ccc2ncc(CCN)n2c1` [Comparative Example 2, 4-(2-{2-[3-(2-aminoethyl)imidazo[1,2-a]pyridin-6-yl]-5-fluorophenoxy}ethyl)-N,1,5-trimethyl-1H-pyrazole-3-carboxamide], the EC50 in the series with MRC5 cells (Homo sapiens, MRC5, 72 h) is more than 6.8 µM; in the series on BL-41 cells (Homo sapiens, BL-41, 72 h), 298 nM; with MDA MB 231 cells (Homo sapiens, MDA-MB-231, 72 h), 237 nM; in the series with LY 12318 cells (Homo sapiens) it was more than 370 nM. Moreover, the IC50 at human NMT1 (HsNMT1) is ~1 nM and 1 nM.
